Bounds are passed on as bounds.

For the compound `O=C(O)c1ccc2nc3c(c(=O)n2c1)CCC3=Cc1ccccc1`, the melting point (usually the temperature, or range, at which the solid turns liquid) lay in the range of 153 to 154 °C.

In turn, `CC(Oc1ncn(-c2cccc(Cl)c2)n1)C(=O)N(C)C` (stereo not given) came in with a melting point of 136 to 139 °C.

For `CCCc1cccc(CNC(=O)c2nc3scc(COCc4ccc(C(=O)O)cc4)c3c(=O)[nH]2)c1`, the melting point is 235 to 237 °C.

Take `N#CC1=Nc2ccc(Cl)cc2Oc2ccccc21`: the melting point lay in the range of 185 to 188 °C.

Compound `CCc1nc2c(C#N)cccc2n1-c1ccc(CCNC(=O)NS(=O)(=O)c2ccc(C)cc2)cc1` had a melting point of 95 to 103 °C.

Take `O=[N+]([O-])c1cnc2sccc2c1Cl`: the melting point lay in the range of 110 to 113 °C.

Turning to `CC(C)Oc1ccc(C2CCc3cccc(C(=O)O)c3N2)cc1` (stereo not given), the melting point is 166 to 167 °C.

The compound `CCOC(=O)Cc1nc(-c2ccccc2)oc1C(C)C` displayed a melting point of 37 to 38 °C.

For the compound `O=C(NCCO)c1cccc(-c2ccc3c(c2)N(Cc2cccc(Cl)c2Cl)CC3)c1`, the melting point was in the range of 158 to 159 °C.

On to `O=C1c2cccc(OC(F)=C(F)F)c2C(=O)N1c1ccc(OC(F)=C(F)F)cc1`, for which the melting point worked out at 172 °C.

In the case of `CCOC(=O)C1=C(C)NC(c2cscn2)=NC1c1cccc(F)c1` (stereo not given), the melting point lay in the range of 118 to 120 °C.

`N#CCCNC(=S)C1=CC(CF)(CF)Oc2ccc(C(F)(F)C(F)(F)F)cc21` returned a melting point of 108 to 109 °C.

`COc1ccc(-c2c3c(cc4ccc(OC(C)C)cc24)C(=O)NC3)cc1` yielded a melting point of 212 to 215 °C.

In the case of `O=C(c1ccccc1)N1CCc2[nH]c3cccc(-c4cc(F)cc(F)c4)c3c2CC1`, the melting point is 198 to 201 °C.

As for `N#Cc1ccccc1C#CC1(C(F)(F)F)OC(=O)Nc2ccc(Cl)cc21` (racemic), the melting point was 245 to 246 °C.

Compound `Cc1cccc(-c2nsc(C(=O)O)c2C(=O)O)c1` registered a melting point of 166 to 167 °C.

As for `Cc1cc(N(C)Cc2ccc(-c3ccc(OC(F)(F)F)cc3)nc2)ccc1OCC(=O)O`, the melting point fell in the range of 137 to 138 °C.

Take `CCCCOc1ccc(S(C)(=O)=O)cc1C(=O)Nc1c(C(N)=O)nn(C2CN(C(C)C)C2)c1CC`: the melting point was 198 to 201 °C.

Take `CCCc1c(OCCCOc2ccc(C(=O)O)cc2Br)ccc(C(C)=O)c1OC(C)=O`: the melting point fell in the range of 125 to 127 °C.

`Cc1nc(N2CCN(Cc3ccc(C(F)(F)F)cc3)C2=O)sc1C(=O)NCc1ccccc1` showed a melting point of 127 to 128 °C.

`O=c1c2cc(F)c(N3CCCC3)nc2n(-c2ccccc2F)c(=O)n1OCc1ccccc1` had a melting point of 221 to 222 °C.

`CN(C)CCc1c[nH]c2ccc(CCC(=O)NCc3ccc(NS(C)(=O)=O)cc3)cc12` yielded a melting point of 78 to 82 °C.

In the case of `COc1ccc2cc(NC(C)=O)cc(C)c2n1`, the melting point lay in the range of 193 to 196 °C.

The compound `Cc1nc(N2CCN(Cc3ccc(OC(F)(F)F)cc3)C2=O)sc1C(=O)NCc1cccnc1` showed a melting point of 165 to 166 °C.

Turning to `Cc1ccc(S(=O)(=O)N[C@H](CO)CCO)cc1`, the melting point fell in the range of 90 to 92 °C.

`O=C(O)c1ccc(C(F)(F)F)cc1[N+](=O)[O-]` registered a melting point of 136 to 138 °C.

The compound `C=CCOc1cccc2nc(C)sc12` gave a melting point of 38 to 39 °C.

`COC(=O)c1ccc2c(c1)Sc1ccccc1N=C2Cl` returned a melting point of 134 to 136 °C.

For `CN(C)C1Cc2cc(Br)cc([N+](=O)[O-])c2NC1=O` (stereo not given), the melting point is 162 to 165 °C.

Consider `O=C(O)CCCCN(C(=O)c1ccc(Cl)cc1)c1cccc2ccccc12`, for which the melting point fell in the range of 169 to 170 °C.

Turning to `CCCCN(C)CCc1ccc(Nc2ncc3c(n2)-c2ccccc2[C@H](c2ccc(F)cc2)C3)cc1`, the melting point is 164 to 166 °C.

Take `C#CCOc1ccccc1OS(=O)(=O)NC(=O)Nc1nc(OC)cc(OC)n1`: the melting point fell in the range of 125 to 126 °C.

Regarding `S=c1nc2ccccn2c(=S)n1-c1ccccn1`, the melting point lay in the range of 107 to 109 °C.

`N=C(NO)c1ccc(-c2cccc(-c3nc4cc(C(=N)NO)ccc4[nH]3)c2)nc1` came in with a melting point of 295 to 297 °C.

`Nc1sc(CC(=O)O)cc1C(=O)c1ccccc1Cl`: the melting point lay within 172 to 182 °C.

The compound `COc1ccc(N2CCN(c3c(C)c(C)c4c(c3C)C(c3ccc(C)cc3)C(C)(C)O4)CC2)cc1OC` (stereo not given) displayed a melting point of 136 to 139 °C.

Compound `CN(C)C(=O)Oc1c(N2CCCC2)c(=O)n(-c2ccccc2)c2ncccc12` came in with a melting point of 218 to 220 °C.

The compound `COc1ccc([C@H]2N[C@H](c3ccc4c(c3)OCO4)c3ccccc32)cc1` (racemic) gave a melting point of 123 to 125 °C.

Take `CCCCc1c(Cl)nc(C)nc1Cl`: the melting point fell in the range of 50 to 51 °C.

Regarding `CC(C)c1ccc2ncn(/C=C/C(=O)NCCNCc3cccnc3)c(=O)c2c1`, the melting point lay within 121 to 124 °C.

`FC(F)(F)c1cccc(N2CCN(c3nc4cccc5c4n3CCC5)CC2)c1` registered a melting point of 158 to 159 °C.

As to `Cn1cc2c(nc(NC(=O)Nc3ccc(CC(=O)O)cc3)n3nc(-c4ccco4)nc23)n1`, the melting point was more than 300 °C.

Regarding `Cc1cc2ncnn2c(N2CCN(C)CC2)n1`, the melting point lay in the range of 95 to 98 °C.

In turn, `CC(=O)N(C)c1scc(C)c1C(=O)c1ccccc1` returned a melting point of 122 °C.

In the case of `CCN(CC)C(=O)N1CCc2ccc(S(=O)(=O)NC(=O)NC3CCCCC3)cc2CC1`, the melting point lay within 168 to 169 °C.

Compound `CCCCc1nc2ccccc2n1CCC(=O)O` came in with a melting point of 177 to 178 °C.

`Cc1ccc(C)c(C(CO)c2ccc(C(C)C)cc2)c1O` (stereo not given) yielded a melting point of 88 to 89 °C.

`Cc1ccc(C(=O)O)c(Nc2ccc3[nH]ncc3c2)n1` came in with a melting point of 252 to 254 °C.

As to `Nc1ccc(Cl)cc1C(=O)c1ccc(Cl)cc1`, the melting point lay within 106 to 107 °C.

The compound `Cn1cc(-c2ccccc2)c(=O)c(-c2cc(Cl)ccc2Cl)c1` had a melting point of 156 °C.

Regarding `COC(=O)c1c[nH]c(Cl)c1`, the melting point came out at 92 °C.

Take `COC(=O)C(=O)c1ccc(OC/C=C/c2ccccc2)cc1`: the melting point fell in the range of 80 to 82 °C.

`COc1ccc(-c2c(Cl)c(CNC(=O)c3cccnc3)nc3sc4c(c23)CCN(Cc2ccccc2)C4)cc1OC` yielded a melting point of 124 to 125 °C.

For the compound `Cc1c(N=C2NCCO2)cccc1NS(C)(=O)=O`, the melting point fell in the range of 124 to 140 °C.

The compound `C[Si](C)(C)C#Cc1ccc(Br)cc1` displayed a melting point of 62 °C.

Regarding `CNC(=O)c1ccccc1Nc1nc(Nc2ccc3c(c2)COCC2CCCCN32)ncc1Cl` (stereo not given), the melting point lay within 220 to 221 °C.

As to `NC(=O)N1CC(c2ccccc2)C(c2ccc(Cl)cc2)=N1` (stereo not given), the melting point was 173 to 175 °C.

As for `COC(=O)C(=O)c1ccc(OC/C=C/c2ccc3ccccc3c2)cc1`, the melting point lay in the range of 100 to 102 °C.

In the case of `NS(=O)(=O)c1cc2[nH]c(CCc3ccccc3)nc2cc1Cl`, the melting point was 226 to 228 °C.

In the case of `O=C(O)c1ccccc1C(=O)c1cc(-c2ccccc2)c(O)c(-c2ccccc2)c1`, the melting point is 234 °C.

Consider `COc1ccccc1-c1ccc(C)cc1`, for which the melting point fell in the range of 70 to 72 °C.

For the compound `CCC(CC)C(O)C(O)C(CC1CCCCC1)NC(=O)C(Cc1c[nH]cn1)NC(=O)C(CC(=O)C(C)(C)C)Cc1ccccc1` (stereo not given), the melting point was 160 °C.

As for `CC(C)Cn1c(C#N)c(-c2ccccc2)c2cccnc2c1=O`, the melting point lay in the range of 221 to 222 °C.

Compound `Nc1ccc(Cl)c(C2SCCS2)c1` returned a melting point of 60 to 63 °C.

`Oc1nc(Nc2ccc(O)c(Cl)c2)cc(-c2ccccc2)n1` yielded a melting point of 280 to 282 °C.

Consider `N#Cc1ccc(-c2cccc(-c3nc4ccc(C#N)cc4[nH]3)n2)cc1`, for which the melting point was in the range of 311 to 312 °C.

For `CC(C)(C)NCC(O)COc1ccc(-c2noc3sccc23)cc1` (stereo not given), the melting point was 118 °C.

Consider `O=C(O)CCc1ccc(OCCCCc2cc(-c3ccc(C(F)(F)F)cc3)no2)cc1`, for which the melting point is 130 to 131 °C.

In the case of `Cc1cc(F)c(-n2c(=O)oc3c(c2=O)CCC3)cc1OC(C)C`, the melting point was 131 to 133 °C.

In turn, `C=C1c2ccccc2CCc2ccccc21` registered a melting point of 65.1 °C.

`CCOC(=O)c1cc(=O)cc(-c2ccccc2O)o1` showed a melting point of 213 to 215 °C.

In the case of `CSC(c1ccc(Cl)cc1)C(C(=O)C(C)(C)C)n1cncn1` (stereo not given), the melting point was 145 °C.

`CCOC(=O)c1cn(-c2c[nH]nn2)c2cc(F)c(F)cc2c1=O` registered a melting point of 298 °C.

For `CN(C)CCCCCCc1ccc(NC=NO)cc1`, the melting point lay in the range of 96 to 97 °C.

With `O=C(NNc1ccccc1)c1nc(Cl)c(Cl)[nH]1`, the melting point was in the range of 229 to 230 °C.

Consider `COC(=O)c1ccc2c(c1)Sc1ccc(C(C)N(O)C(N)=O)cc1CC2` (stereo not given), for which the melting point lay in the range of 167 to 169 °C.

`CC(C)C1(C)N=C(c2ncc(CN(C)C)cc2C(=O)O)NC1=O` (stereo not given): the melting point lay within 186 to 190 °C.

`CC(C)COC(=O)COC(=O)CON1CC(NC(=O)OCc2ccccc2)C1=O` (stereo not given) yielded a melting point of 90 to 92 °C.

In turn, `CS(=O)(=O)NC1CC(N)(C(=O)O)C2C(C(=O)O)C12` (stereo not given) yielded a melting point of more than 275 °C.

Compound `NS(=O)(=O)c1nc(-c2ccc([N+](=O)[O-])cc2)c[nH]1` registered a melting point of 227 to 229 °C.

For `O=C1CC(c2cccc(-n3ccnc3)c2)=Nc2cc(OCCO)c(C#Cc3ccc(F)cc3)cc2N1`, the melting point is 220 to 222 °C.

In turn, `Nc1c(-c2ccc(-c3ccc(F)cc3F)cc2)nc2ccc(Cl)cc2c1C(=O)O` returned a melting point of 253 to 254 °C.

In the case of `Cc1cc(C#N)cc(C(=O)c2c(C(C)C)c(=O)[nH]c(=O)n2CC2(CC(N)=O)CC2)c1`, the melting point fell in the range of 283 to 285 °C.

Regarding `CCCCn1c(C)nnc1SC(N)=O`, the melting point was in the range of 112 to 114 °C.

As for `CCCCC(=O)Nc1c(C)c(C)c2c(c1C)C(c1ccc(C(C)C)cc1)CO2` (stereo not given), the melting point fell in the range of 128 to 129 °C.

With `O=C(NCCCOc1ccncc1)c1cccs1`, the melting point fell in the range of 123 to 125 °C.

For the compound `Nc1nc(=O)n(C2C=CC(CO)O2)cc1F` (stereo not given), the melting point turned out to be 206 °C.

`O=C(Cc1ccccc1)c1ccc(SCC(F)(F)F)cc1` registered a melting point of 60 to 61 °C.

Compound `Cc1cc2c(=O)c(-c3nnnn3C)cn(C)c2cc1C` yielded a melting point of 245 to 246 °C.

As for `O=C1Nc2ccc(Cl)cc2C(c2ccccc2)=N[C@@H]1Cc1ccccc1`, the melting point is 154 to 157 °C.

Values taken from a melting point compilation (Tetko et al.; mined from patent text by program, amines drawn as free bases though some values may be those of a salt).
